Experimental data taken from US20110105389A1 (priority 2009, published 2011).

Legend:
[1] = biological target: T1, GHS-R1a receptor (HEK293 cells expressing GHS-R1a receptor) (Homo sapiens, UniProt Q92847); experiment: Fluorescence functional assay (ghrelin receptor), Method B2, agonist and antagonist mode; type: cell-based; conditions: functional activity as an antagonist at the ghrelin receptor, Methods B2 and B3
T1 construct: host or cells: HEK293
Procedure, shortened: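 Calcium flux read by ImageTrak epifluorescence in HEK293 cells stably expressing GHS-R1a, loaded 1 h at 37 °C with Calcium-3 dye; buffer HBSS/20 mM Hepes, pH 7.4, with probenecid and BSA. Agonists injected after 10 s baseline, read 50 s more; antagonists 3 min. Sigmoidal fits gave EC50 or IC50.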

[2] = Metabolic stability in human liver microsomes, Method B8; type: in vitro ADME; conditions: human liver microsomes 0.8 mg/mL, 5 μM compound, 37° C.
Description: B8. Metabolic Stability in Human Liver Microsomes
The liver is the primary site for phase I (oxidation) and phase II (glucuronidation) enzymatic activity responsible for xenobiotic metabolism. Human liver microsomes are used as in vitro screen of metabolic activity for candidate drugs. Similar studies can be run with microsomes from other species, such as those used for in vivo studies, to determine any significant species differences in the stability profile. The aim of this study was to measure the broad-spectrum metabolic stability of representative compounds of the invention. The key aspects of the experimental design are summarized below: • Human liver microsomes (mixed pool of 15 male and female donors) were purchased from In Vitro Technologies (Baltimore, Md.). • Microsomes characterized for phase I (Cyp2A6, 2D6, 2E1, 1A2, 2C19, 3A4, 4A) and phase II (glucuronidation) enzymatic activity. • Assays are performed using a final concentration of 0.8 mg/mL of microsomes in 100 mM potassium phosphate buffer (1.5 mM NADPH, 8 mM MgCl2, pH 7.4, 37° C.). • Compounds are tested in duplicate samples at a single concentration of 5 μM (0.05% DMSO). • Test articles are incubated with the microsomes at 37° C.

[3] = biological target: T2, human ghrelin receptor (GRLN, growth hormone secretagogue receptor, hGHS-R1a) (Homo sapiens, UniProt Q92847); experiment: Competitive radioligand binding assay (ghrelin receptor), Method B1; conditions: Ghrelin receptor binding activity, Method B1
T2 construct: purchased PerkinElmer BioSignal #RBHGHSM, lot#1887; host or cells: HEK-293 cells, stably transfected (membranes)
Procedure, shortened: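 Filtration competition format: bound radioactivity counted after GF/C harvesting and cold 50 mM Tris-HCl washes. Incubation lasted 30 min at room temperature in Hepes pH 7.4 buffer with Ca2+, Mg2+, EDTA and 0.4% BSA (DMSO ≤0.1% final); values from variable-slope non-linear regression.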

[4] = biological target: T3, ghrelin receptor (HEK-GHSR1 stable cells) (Homo sapiens, UniProt Q92847); experiment: Ghrelin receptor inverse agonist assay (HTRF IP-one), Method B4; type: cell-based; conditions: inverse agonist at the ghrelin receptor, Method B4
T3 construct: expressed in transfected cells
Description: B4. Ghrelin Receptor Inverse Agonist Assay […]
In addition, the following method can be utilized to assay for inverse agonist activity. (Thomsen, W.; et al. Curr. Opin. Biotechnol. 2005, 16, 655-665; Tozawa-Takahashi F; et al., 11th SBS Annual Conference. September 2005, Geneva; Trinquet, E.; Fink, M.; Bazin, H.; et al. Anal. Biochem. 2006, 358, 126-135; Bergsdorf, C.; Kropp-Goerkis, C.; Kaehler, I.; Ketscher, L.; Boerner, U.; Parczyk, K.; Bader, B. Assay Drug Dev. Technol. 2008, 6, 39-53.)
• 1. Remove culture medium from the plate by inversion. • 2. Add 70 μl of compound/well. • 3. Incubate 30 min at 37° C. • 4. Stop the reaction by adding 15 μl of lysis buffer/well. • 5. Add 15 μl of d2/well. • 6. Add 15 μl of Anti-IP1 cryptate/well. • 7. Incubate 1 h at room temp on an orbital shaker at 100 RPM. • 8. Read the fluorescence in a plate reader (Tecan GeniosPro or similar)
The above sequence was performed using the HTRF IP-one kit (CisBio cat#62P1APEC). For the simultaneous assay of multiple test compounds, 96-well plates can be utilized in this assay (white plate with flat-bottom well, Falcon #353296). These were seeded overnight with 100 000 of HEK-GHSR1 stable cells/well. • Wells A1 and A2 of each plate are used as negative control (wells without d2). Compounds are typically tested in replicate at the following concentrations:
Compounds are stored at 10 mM in 100% DMSO.
1st dilution 1/10 in 100% DMSO (1 mM final concentration).
2nd dilution 1/10 in H2O (0.1 mM final concentration).
Other dilutions are performed in a 96-well plate in stimulation buffer.
The results for representative compounds of the invention are provided in the Examples.

[5] = Pharmacokinetic analysis (intravenous and oral), Method B9; type: in vivo; conditions: Table 10b; for Cl / t1/2: 2 mg/mL intravenous typically employed
Description: B9. Pharmacokinetic Analysis
The pharmacokinetic (PK) behavior of compounds of the invention and their pharmaceutical compositions can be ascertained by methods well known to those skilled in the art and can be used to investigate the pharmacokinetic parameters (elimination half-life, total plasma clearance, etc.) for intravenous, subcutaneous and oral administration of these substances. (Wilkinson, G. R. “Pharmacokinetics: The Dynamics of Drug Absorption, Distribution, and Elimination” in Goodman & Gilman's The Pharmacological Basis of Therapeutics, Tenth Edition, Hardman, J. G.; Limbird, L. E., Eds., McGraw Hill, Columbus, Ohio, 2001, Chapter 1.) See also U.S. Pat. Nos. 7,476,653; 7,491,695; Intl. Pat. Appl. WO 2008/033328 and U.S. Patent Appl. Publ. 2008/0194672. As an example, compound 1505 has the PK profile below.
The determination of PK parameters for additional representative compounds of the invention is presented in the Examples.
A detailed analysis of the pharmacokinetic profile of representative compounds of the invention was conducted using the procedures outlined in Method B9.
A dose level of 2 mg/mL for intravenous administration and 8 mg/mL for oral administration were typically employed.

T3 sequence (Q92847 whole entry): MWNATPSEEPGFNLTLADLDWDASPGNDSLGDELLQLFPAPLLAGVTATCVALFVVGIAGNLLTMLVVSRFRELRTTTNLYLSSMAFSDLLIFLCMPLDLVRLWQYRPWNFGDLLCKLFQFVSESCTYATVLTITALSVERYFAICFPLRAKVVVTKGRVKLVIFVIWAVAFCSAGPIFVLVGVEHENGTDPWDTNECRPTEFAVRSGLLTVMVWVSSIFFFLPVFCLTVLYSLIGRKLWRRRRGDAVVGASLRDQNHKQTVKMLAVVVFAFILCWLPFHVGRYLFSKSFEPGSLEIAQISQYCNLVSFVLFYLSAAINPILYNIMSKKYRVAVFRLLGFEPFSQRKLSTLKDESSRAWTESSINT
T2 sequence (Q92847 whole entry): as above
T1 sequence (Q92847 whole entry): as above

Structure (SMILES)	Antagonist Activity [1]	HLM, metabolic stability in human liver microsomes [2] [μL/min/mg protein]	IC50 [3] [µM]	IC50 [4] [µM]	% F ([5]; 2 mg/mL intravenous and 8 mg/mL oral typically employed) [%]	Cl [5] [L/h/kg]	t1/2 [5] [h]
COc1cccc(C[C@H]2NC(=O)[C@H](C(C)O)N(C)C(=O)[C@H](C(C)C)NCCOc3ccccc3CC[C@@H](C)NC2=O)c1 (stereo partly drawn) [Compound 1371]	B (B = 1-10 nM)	30.5	–	–	–	–	–
CC(C)[C@@H]1NCCOc2ccccc2CC[C@@H](C)NC(=O)[C@@H](Cc2ccc(F)c(F)c2)NC(=O)[C@H](C(C)O)N(C)C1=O (stereo partly drawn) [Compound 1372]	A (A <1 nM)	60.8	–	–	–	–	–
Cc1cccc(C[C@H]2NC(=O)[C@H](C(C)O)N(C)C(=O)[C@H](C(C)C)NCCOc3ccccc3CC[C@@H](C)NC2=O)c1 (stereo partly drawn) [Compound 1373]	A (A <1 nM)	31	–	–	–	–	–
CC(C)[C@@H]1NCCOc2ccccc2CC[C@@H](C)NC(=O)[C@@H](Cc2cccc(C#N)c2)NC(=O)[C@H](C(C)O)N(C)C1=O (stereo partly drawn) [Compound 1374]	B (B = 1-10 nM)	35.8	–	–	–	–	–
CC(C)[C@@H]1NCCOc2c(F)cccc2CCCNC(=O)[C@@H](Cc2ccccc2)NC(=O)[C@H](C(C)O)N(C)C1=O (stereo partly drawn) [Compound 1376]	C (C = 10-100 nM)	32.2	–	–	–	–	–
CC(C)[C@@H]1NCCOc2ccc(F)cc2CCCNC(=O)[C@@H](Cc2ccccc2)NC(=O)[C@H](C(C)O)N(C)C1=O (stereo partly drawn) [Compound 1377]	–	65.5	–	–	–	–	–
CC(C)[C@@H]1NCCOc2cccc(F)c2CCCNC(=O)[C@@H](Cc2ccccc2)NC(=O)[C@H](C(C)O)N(C)C1=O (stereo partly drawn) [Compound 1378]	C (C = 10-100 nM)	42.9	–	–	–	–	–
CC[C@@H]1CCc2ccccc2OCCN[C@@H](C(C)C)C(=O)N(C)[C@@H](C(C)O)C(=O)N[C@H](Cc2ccccc2)C(=O)N1 (stereo partly drawn) [Compound 1393]	B (B = 1-10 nM)	46.6	–	–	–	–	–
CC(C)[C@@H]1NCCOc2ccccc2CC[C@@H](C)NC(=O)[C@@H](Cc2cccc(C(F)(F)F)c2)NC(=O)[C@H](C(C)O)N(C)C1=O (stereo partly drawn) [Compound 1412]	–	35.4	–	–	–	–	–
Cc1cccc(C[C@H]2NC(=O)[C@H](C(C)O)N(C)C(=O)[C@H](C(C)C)NCCOc3cc(F)ccc3CC[C@@H](C)NC2=O)c1 (stereo partly drawn) [Compound 1451]	B (B = 1-10 nM)	10.4	–	–	–	–	–
COc1cccc(C[C@H]2NC(=O)[C@H](C(C)O)N(C)C(=O)[C@H](C(C)C)NCCOc3cc(F)ccc3CC[C@@H](C)NC2=O)c1 (stereo partly drawn) [Compound 1473]	–	14.2	–	–	–	–	–
CC(C)C1NCCOc2cc(F)ccc2C=CCNC(=O)C(Cc2ccc(F)cc2)NC(=O)C(C(C)O)N(C)C1=O (stereo not drawn) [Compound 1690]	–	21.8	0.001 to 0.01	0.05 to 0.1	–	–	–
CC(C)C1NCCOc2ccccc2C#CCNC(=O)C(Cc2cccc(F)c2)NC(=O)C(C(C)O)N(C)C1=O (stereo not drawn) [Compound 1691]	–	53.7	0.001 to 0.01	0.1 to 0.5	–	–	–
CC(C)C1NCCOc2cc(F)ccc2C=CCNC(=O)C(Cc2ccccc2)NC(=O)C(C(C)O)N(C)C1=O (stereo not drawn) [Compound 1702]	–	14.1	0.001 to 0.01	0.05 to 0.1	–	–	–
CCC(C)C1NCCOc2ccccc2C#CCNC(=O)C(Cc2ccc(Cl)cc2)NC(=O)C(C(C)O)N(C)C1=O (stereo not drawn) [Compound 1704]	–	33.5	0.01 to 0.1	0.1 to 0.5	–	–	–
CCC1CCc2ccc(F)cc2OC(C)CNC(C2(C)CC2)C(=O)N(C)C(C(C)O)C(=O)NC(Cc2ccccc2)C(=O)N1 (stereo not drawn) [Compound 1705]	C (C = 10-100 nM)	–	0.01 to 0.1	0.1 to 0.5	50 ± 14	0.36 ± 0.12	2.77 ± 0.033
CC[C@@H]1CCc2c(F)cccc2OCCN[C@@H](C(C)C)C(=O)N(C)[C@@H](C(C)O)C(=O)N[C@H](Cc2ccc(F)cc2)C(=O)N1 (stereo partly drawn) [Compound 1723]	–	64.3	0.01 to 0.1	0.1 to 0.5	–	–	–
CC[C@@H]1CCc2c(F)cccc2OCCN[C@@H](C(C)C)C(=O)N(C)[C@@H](C(C)O)C(=O)N[C@H](Cc2c[nH]c3ccccc23)C(=O)N1 (stereo partly drawn) [Compound 1725]	–	66.5	0.01 to 0.1	0.1 to 0.5	–	–	–
CCC(C)C1NCCOc2ccccc2C=CCNC(=O)C(Cc2ccccc2C)NC(=O)C(C(C)O)N(C)C1=O (stereo not drawn) [Compound 1737]	–	83.9	0.001 to 0.01	0.05 to 0.1	–	–	–
CCC(C)C1NCCOc2ccccc2C=CCNC(=O)C(Cc2ccccc2Cl)NC(=O)C(C(C)O)N(C)C1=O (stereo not drawn) [Compound 1738]	–	53.2	0.001 to 0.01	0.01 to 0.05	–	–	–
CCC1CCc2ccc(F)cc2OCCNC(C(C)C)C(=O)N(C)C(C(C)O)C(=O)NC(Cc2c[nH]c3ccc(F)cc23)C(=O)N1 (stereo not drawn) [Compound 1803]	B (B = 1-10 nM)	–	0.001 to 0.01	0.01 to 0.05	–	0.6 ± 0.06	1.72 ± 0.217
